The text below walks through data of ChEMBL document CHEMBL1147207 (Eur J Med Chem, 2007).

Each structure is given as a SMILES string. The source made the active and inactive calls. The calls are words filed in the database; no cut-off is given here.

Test [1] concerns the target T1, Oxytocin receptor (Rattus norvegicus) (UniProt P70536).
T1 sequence (whole entry): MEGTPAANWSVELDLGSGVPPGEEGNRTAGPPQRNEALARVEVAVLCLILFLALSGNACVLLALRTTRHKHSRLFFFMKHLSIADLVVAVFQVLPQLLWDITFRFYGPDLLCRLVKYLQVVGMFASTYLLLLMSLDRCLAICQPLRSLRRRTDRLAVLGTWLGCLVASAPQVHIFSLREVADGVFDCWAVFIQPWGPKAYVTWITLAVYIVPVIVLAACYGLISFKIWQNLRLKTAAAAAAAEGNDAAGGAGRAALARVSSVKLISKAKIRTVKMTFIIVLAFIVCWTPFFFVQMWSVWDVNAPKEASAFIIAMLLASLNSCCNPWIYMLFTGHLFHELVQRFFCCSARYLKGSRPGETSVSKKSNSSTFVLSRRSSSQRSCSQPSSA
The test can be described thus: Agonist activity in rat uterus by uterotonic assay. It counts as functional, tissue-based.

In test [2] the target is T2, Oxytocin receptor (Rattus norvegicus, UniProt P70536).
T2 sequence (P70536 whole entry): T1 sequence (whole entry)
Description: Antagonist activity in rat uterus by uterotonic assay. It is filed as functional, tissue-based. The conditions noted are these: read-out: pA2 (converted).

The target in test [3] is T3, Oxytocin receptor (Homo sapiens, UniProt P30559).
T3 sequence (P30559 whole entry): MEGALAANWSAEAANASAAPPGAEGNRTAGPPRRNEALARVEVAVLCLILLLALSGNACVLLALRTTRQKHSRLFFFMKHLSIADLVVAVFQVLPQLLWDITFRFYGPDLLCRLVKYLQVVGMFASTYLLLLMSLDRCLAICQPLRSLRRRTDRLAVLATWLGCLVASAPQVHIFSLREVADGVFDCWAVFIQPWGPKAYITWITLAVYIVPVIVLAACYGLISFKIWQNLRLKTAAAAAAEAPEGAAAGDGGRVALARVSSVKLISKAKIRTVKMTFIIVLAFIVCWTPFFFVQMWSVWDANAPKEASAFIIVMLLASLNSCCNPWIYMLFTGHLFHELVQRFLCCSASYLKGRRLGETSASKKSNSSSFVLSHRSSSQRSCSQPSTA
The test can be described thus: Displacement of [3H]OT from human OT receptor expressed in HEK cells. It is filed as cell-based, HEK293. For orientation: Loss of bound radioactivity is the signal in a displacement assay; it reports binding, not function.

Test [4] has as its target Vasopressin V1a receptor (Rattus norvegicus) (UniProt P30560). The test can be described thus: Antagonist activity in phenoxybenzamine-treated rat by Pressor assay. The conditions noted are these: read-out: pA2 (converted).
For test [5] the target is unchanged. The test can be described thus: Agonist activity in phenoxybenzamine-treated rat up to 0.16 mg/kg by Pressor assay.

Sequence of Vasopressin V1a receptor (Rattus norvegicus) (P30560 whole entry, looked up): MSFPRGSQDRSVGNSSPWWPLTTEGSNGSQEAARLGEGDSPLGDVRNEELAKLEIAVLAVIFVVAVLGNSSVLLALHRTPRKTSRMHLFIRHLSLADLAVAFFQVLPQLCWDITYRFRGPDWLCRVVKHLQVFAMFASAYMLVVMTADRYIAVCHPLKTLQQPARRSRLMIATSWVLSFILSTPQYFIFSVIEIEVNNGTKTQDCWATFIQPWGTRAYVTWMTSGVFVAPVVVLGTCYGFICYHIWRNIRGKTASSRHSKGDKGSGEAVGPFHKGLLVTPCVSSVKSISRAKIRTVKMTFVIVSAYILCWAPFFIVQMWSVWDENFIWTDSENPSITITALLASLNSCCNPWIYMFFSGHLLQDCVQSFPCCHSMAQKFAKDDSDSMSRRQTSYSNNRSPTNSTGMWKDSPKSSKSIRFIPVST

With `CC[C@H](C)[C@@H]1NC(=O)[C@H](Cc2ccc(O)cc2)NC(=O)CCSSC[C@@H](C(=O)N2Cc3ccccc3C[C@H]2C(=O)N[C@@H](CC(C)C)C(=O)NCC(N)=O)NC(=O)[C@H](CC(N)=O)NC(=O)[C@H](CCC(N)=O)NC1=O`, the Activity in test [1] was 3.5 IU/mg. Also, the Kb in test [2] is 35.5 nM; in test [4], above 1000 nM. The compound also gave an IC50 in test [3] of 103 nM. In test [5], the result was inactive.

In the case of `CCOc1ccc(CC2NC(=O)CCSSC[C@@H](C(=O)N3Cc4ccccc4C[C@@H]3C(=O)N[C@@H](CC(C)C)C(=O)NCC(N)=O)NC(=O)[C@H](CC(N)=O)NC(=O)[C@H](CCC(N)=O)NC(=O)[C@H]([C@@H](C)CC)NC2=O)cc1` (stereo in doubt), in test [1], the Activity was found to be 0 IU/mg. In addition, the Kb in test [2] was 6.31 nM; in test [4], above 1000 nM. This compound displayed an IC50 in test [3] of 51 nM. The result in test [5] was inactive.

In test [1], `CC[C@H](C)[C@@H]1NC(=O)[C@H](Cc2ccc(O)cc2)NC(=O)[C@@H](N)CSSC[C@@H](C(=O)N2Cc3ccccc3C[C@H]2C(=O)N[C@@H](CC(C)C)C(=O)NCC(N)=O)NC(=O)[C@H](CC(N)=O)NC(=O)[C@H](CCC(N)=O)NC1=O` showed an Activity of 2 IU/mg. The Kb is 2510 nM in test [2] and above 1000 nM in test [4]. Further, in test [3], the IC50 is 130 nM. Moreover, in test [5], the result was inactive.

Compound `CC[C@H](C)[C@@H]1NC(=O)[C@H](Cc2ccc(O)cc2)NC(=O)[C@@H](N)CSSC[C@@H](C(=O)N2Cc3ccccc3C[C@@H]2C(=O)N[C@@H](CC(C)C)C(=O)NCC(N)=O)NC(=O)[C@H](CC(N)=O)NC(=O)[C@H](CCC(N)=O)NC1=O` came in with an Activity in test [1] of 0 IU/mg. In addition, the Kb in test [2] was 100 nM; in test [4], above 1000 nM. Also, the IC50 in test [3] stood at 730 nM. The result in test [5] was inactive.

As for `CCOc1ccc(CC2NC(=O)CCSSC[C@@H](C(=O)N3Cc4ccccc4C[C@H]3C(=O)N[C@@H](CC(C)C)C(=O)NCC(N)=O)NC(=O)[C@H](CC(N)=O)NC(=O)[C@H](CCC(N)=O)NC(=O)[C@H]([C@@H](C)CC)NC2=O)cc1` (stereo in doubt), the Activity in test [1] was found to be 0 IU/mg. The Kb was 15.8 nM in test [2] and above 1000 nM in test [4]. In addition, the IC50 in test [3] came to 176 nM. Further, the result in test [5] was inactive.

One may read the IC50 as the concentration that inhibits the measured activity by half.
